Measurements taken from patent US20090264402A1, “NOVEL DIPHENYLAZETIDINONE SUBSTITUTED BY PIPERAZINE-1-SULFONIC ACID AND HAVING IMPROVED PHARMACOLOGICAL PROPERTIES” (SANOFI-AVENTIS DEUTSCHLAND GMBH, priority 2006, published 2009).

Test system: uptake of 14C-cholesterol in the liver
Test: Cholesterol absorption test (14C-cholesterol uptake in the liver) in NMRI mice
Assay type: in vivo
Method: The compound of the invention of the formula I (ammonium salt) was tested for its effect using the method described below:
NMRI mice (in groups of n=4-6) are kept with a standard diet (altromin, lage (lippe)) in metabolism cages. The animals are fasted from the afternoon before administration of the radioactive tracer (^14C-cholesterol) and adapted to wire grids.
In addition, the animals are labeled with ^3H-TCA (taurocholic acid) s.c. 24 hours before the oral administration of the test meal (^14C-cholesterol in Intralipid® 20, Pharmacia-Upjohn) (e.g. 1 μCi/mouse to 5 μCi/rat).
Cholesterol absorption test: 0.25 ml/mouse Intralipid® 20 (Pharmacia-Upjohn) (spiking with 0.25 μCi ^14C-cholesterol in 0.1 mg of cholesterol) is administered orally by gavage.
Test substances are made up separately in 0.5%/(methylcellulose (Sigma)/5% Solutol (BASF, Ludwigshafen) or a suitable vehicle.
The volume for administration of the test substance is 0.5 ml/mouse. The test substance is administered immediately before the test meal (Intralipid with ^14C-cholesterol label) (cholesterol absorption test).
The livers are removed, homogenized and combusted in aliquots in an oximate (model 307, Packard) to determine the amount of ^14C-cholesterol taken up/absorbed.
The amount of ^14C-cholesterol taken up in the liver is related to the dose administered. […]

SMILES | ED50 (liver) (NMRI mice, oral, test substance given immediately before 14C-cholesterol test meal, dose which halves uptake of 14C-cholesterol in the liver relative to control) [mg/mouse] | activity relative to comparison compound LVIII from WO 2004/000804 (times better) (ratio of ED50 (liver) values) [times]
N.O=C(Oc1ccc([C@@H]2[C@@H](CC[C@H](O)c3ccc(F)cc3)C(=O)N2c2ccc(F)cc2)c(F)c1)N1CCN(S(=O)(=O)O)CC1 [I (ammonium salt), Ammonium 4-(3-fluoro-4-{(2S,3R)-1-(4-fluorophenyl)-3-[(S)-3-(4-fluoro-phenyl)-3-hydroxylpropyl]-4-oxoazetidin-2-yl}phenoxycarbonyl)piperazine-1-sulfonate] | 0.01 | –
O=C(Oc1ccc([C@@H]2[C@@H](CC[C@H](O)c3ccc(F)cc3)C(=O)N2c2ccc(F)cc2)c(F)c1)N1CCN(S(=O)(=O)O)CC1 [I] | – | 10
